In patent publication US12435046B2, “Alkynyl quinazoline compounds” (Black Diamond Therapeutics, Inc., priority 2019, dated 2025) one finds IC50 data, which are given here for 17 molecules.

Common to all, as to format: cell-based
What all share (conditions): Table A; BaF3 cells, 3 days

One test deals with T1, EGFR wt (Homo sapiens, UniProt P00533).
T1 construct: expressed in transfected cells; host or cells: BaF3 (murine pro-B) cells, retroviral transduction with pMXs-IRES-Blasticidin
Put plainly: BaF3 cell proliferation assay (CellTiterGlo), EGFR wt. On the procedure:
(§1) Retroviral Production: EGFR mutants were subcloned into pMXs-IRES-Blasticidin (RTV-016, Cell Biolabs, San Diego, CA). Retroviral expression vector retrovirus was produced by transient transfection of HEK 293T cells with the retroviral EGFR mutant expression vector pMXs-IRES-Blasticidin (RTV-016, Cell Biolabs), pCMV-Gag-Pol vector and pCMV-VSV-G-Envelope vector. Briefly, HEK 293T/17 cells were plated in 100 mm collagen coated plate (354450, Corning Life Sciences, Tewksbury, MA) (4×10^5 per plate) and incubated overnight. The next day, retroviral plasmids (3 ng of EGFR mutant, 1.0 ng of pCMV-Gag-Pol and 0.5 ng pCMV-VSV-G) were mixed in 500 n1 of Optimem (31985, Life Technologies). The mixture was incubated at room temperature for 5 min and then added to Optimem containing transfection reagent Lipofectamine (11668, Invitrogen) and incubated for 20 minutes. Mixture was then added dropwise to HEK 293T cells. The next day the medium was replaced with fresh culture medium and retrovirus was harvested @ 24 and 48 hrs.
(§2) Generation of EGFR mutant stable cell lines: BaF3 cells (1.5E5 cells) were infected with 1 ml of viral supernatant supplemented with 8 ng/ml polybrene by centrifuging for 30 min at 1000 rpm. Cells were placed in a 37° C. incubator overnight. Cells were then spun for 5 minutes to pellet the cells. Supernatant was removed and cells re-infected a fresh 1 ml of viral supernatant supplemented with 8 ng/ml polybrene by centrifuging for 30 min at 1000 rpm. Cells were placed in 37° C. incubator overnight. Cells were then maintained in RPMI containing 10% Heat Inactivated FBS, 2% L-glutamine containing 10 ng/ml IL-3. After 48 hours cells were selected for retroviral infection in 10 […] for one week. Blasticidin resistant populations were washed twice in phosphate buffered saline before plating in media lacking IL-3 to select for IL-3 independent growth.
(§3) Assay for cell proliferation: BaF3 cell lines were resuspended at 1.3E5 c/ml in RPMI containing 10% Heat Inactivated FBS, 2% L-glutamine and 1% Pen/Strep and dispensed in triplicate (17.5E4 c/well) into 96 well plates. To determine the effect of drug on cell proliferation, cells incubated for 3 days in the presence of vehicle control or test drug at varying concentrations. Inhibition of cell growth was determined by luminescent quantification of intracellular ATP content using CellTiterGlo (Promega), according to the protocol provided by the manufacturer. Comparison of cell number on day 0 versus 72 hours post drug treatment was used to plot dose-response curves. The number of viable cells was determined and normalized to vehicle-treated controls. Inhibition of proliferation, relative to vehicle-treated controls was expressed as a fraction of 1 and graphed using PRISM® software (Graphpad Software, San Diego, CA). EC50 values were determined with the same application.

A further test addresses T2, EGFR V3 (Homo sapiens, UniProt P00533, DELINS30-297G).
T2 construct: expressed in transfected cells; host or cells: BaF3 (murine pro-B) cells, retroviral transduction with pMXs-IRES-Blasticidin
Kind of test: BaF3 cell proliferation assay (CellTiterGlo), EGFR V3. On the procedure:
as §1, §2, §3
In general terms: ATP-based viability assays read luminescence as a measure of living cells.

For the next test, the target named is T3, HER2 S310F (Homo sapiens, UniProt P04626, S310F).
T3 construct: expressed in transfected cells; host or cells: BaF3 (murine pro-B) cells
T3 sequence (P04626 23-1255 S310F): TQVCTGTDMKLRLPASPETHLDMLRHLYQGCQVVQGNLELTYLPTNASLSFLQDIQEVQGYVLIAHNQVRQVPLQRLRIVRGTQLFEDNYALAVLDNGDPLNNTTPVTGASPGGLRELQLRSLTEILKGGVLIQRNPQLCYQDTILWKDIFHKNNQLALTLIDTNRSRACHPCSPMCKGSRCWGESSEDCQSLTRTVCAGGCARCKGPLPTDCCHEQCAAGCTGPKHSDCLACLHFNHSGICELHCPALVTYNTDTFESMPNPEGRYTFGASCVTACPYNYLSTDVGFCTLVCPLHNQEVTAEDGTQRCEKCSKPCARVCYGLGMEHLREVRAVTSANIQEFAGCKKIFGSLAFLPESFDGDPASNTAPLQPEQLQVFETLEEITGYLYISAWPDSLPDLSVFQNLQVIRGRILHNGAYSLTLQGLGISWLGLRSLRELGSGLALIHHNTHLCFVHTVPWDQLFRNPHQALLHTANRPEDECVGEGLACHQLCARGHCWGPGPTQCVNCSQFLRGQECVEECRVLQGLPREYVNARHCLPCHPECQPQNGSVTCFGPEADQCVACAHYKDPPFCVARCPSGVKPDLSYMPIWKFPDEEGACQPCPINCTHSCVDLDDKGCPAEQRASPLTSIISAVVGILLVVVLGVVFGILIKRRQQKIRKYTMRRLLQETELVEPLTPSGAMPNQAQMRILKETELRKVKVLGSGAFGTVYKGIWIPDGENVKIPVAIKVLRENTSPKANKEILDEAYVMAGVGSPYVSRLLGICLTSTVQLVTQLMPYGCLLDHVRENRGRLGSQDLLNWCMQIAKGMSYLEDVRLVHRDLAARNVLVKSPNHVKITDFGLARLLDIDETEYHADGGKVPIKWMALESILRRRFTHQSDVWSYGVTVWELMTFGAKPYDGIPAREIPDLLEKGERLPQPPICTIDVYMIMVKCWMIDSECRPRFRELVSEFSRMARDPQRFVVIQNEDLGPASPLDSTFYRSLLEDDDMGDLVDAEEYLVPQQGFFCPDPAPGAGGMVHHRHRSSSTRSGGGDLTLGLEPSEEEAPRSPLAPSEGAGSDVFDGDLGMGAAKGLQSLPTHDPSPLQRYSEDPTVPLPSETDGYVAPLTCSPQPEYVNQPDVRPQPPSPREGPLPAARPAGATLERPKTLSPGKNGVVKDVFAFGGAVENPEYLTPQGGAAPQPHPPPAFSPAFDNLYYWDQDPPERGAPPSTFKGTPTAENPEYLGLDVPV
Put plainly: BaF3 cell proliferation assay (CellTiterGlo), HER2 S310F.

For a further test, the target named is T4, HER2 YVMA (Homo sapiens, UniProt P04626, INS775YVMA).
T4 construct: expressed in transfected cells; host or cells: BaF3 (murine pro-B) cells
T4 sequence (P04626 with tags, fused parts or gaps INS775YVMA): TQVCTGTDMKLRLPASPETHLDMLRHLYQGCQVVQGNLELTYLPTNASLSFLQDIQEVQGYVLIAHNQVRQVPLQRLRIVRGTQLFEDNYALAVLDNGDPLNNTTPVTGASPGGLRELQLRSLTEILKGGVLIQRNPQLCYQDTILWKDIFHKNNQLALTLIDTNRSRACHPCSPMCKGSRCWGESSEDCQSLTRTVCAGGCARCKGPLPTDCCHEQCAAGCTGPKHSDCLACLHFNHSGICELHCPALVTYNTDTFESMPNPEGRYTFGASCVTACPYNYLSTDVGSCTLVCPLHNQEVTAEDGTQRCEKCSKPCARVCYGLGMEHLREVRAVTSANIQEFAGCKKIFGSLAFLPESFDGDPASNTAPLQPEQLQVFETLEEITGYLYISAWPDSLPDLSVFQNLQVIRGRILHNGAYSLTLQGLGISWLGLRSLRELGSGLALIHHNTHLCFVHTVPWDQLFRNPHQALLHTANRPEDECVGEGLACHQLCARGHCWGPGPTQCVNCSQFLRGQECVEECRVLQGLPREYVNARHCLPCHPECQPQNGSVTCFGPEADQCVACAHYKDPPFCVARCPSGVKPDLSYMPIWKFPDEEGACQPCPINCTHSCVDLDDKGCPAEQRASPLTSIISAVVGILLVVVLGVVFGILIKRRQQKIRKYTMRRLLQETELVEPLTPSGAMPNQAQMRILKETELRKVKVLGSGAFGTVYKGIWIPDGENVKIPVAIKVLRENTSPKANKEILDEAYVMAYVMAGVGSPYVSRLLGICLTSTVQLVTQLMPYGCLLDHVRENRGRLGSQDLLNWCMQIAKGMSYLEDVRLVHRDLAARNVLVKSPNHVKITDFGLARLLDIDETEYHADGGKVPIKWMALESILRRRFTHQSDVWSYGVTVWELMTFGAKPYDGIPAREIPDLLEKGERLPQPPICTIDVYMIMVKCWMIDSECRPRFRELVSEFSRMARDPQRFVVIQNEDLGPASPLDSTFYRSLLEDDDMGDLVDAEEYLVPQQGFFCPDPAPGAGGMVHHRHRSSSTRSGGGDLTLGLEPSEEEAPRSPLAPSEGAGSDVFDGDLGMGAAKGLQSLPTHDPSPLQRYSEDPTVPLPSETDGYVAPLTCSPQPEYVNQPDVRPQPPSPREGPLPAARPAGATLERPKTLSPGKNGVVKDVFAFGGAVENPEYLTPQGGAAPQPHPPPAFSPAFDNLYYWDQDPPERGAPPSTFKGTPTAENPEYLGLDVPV
Kind of test: BaF3 cell proliferation assay (CellTiterGlo), HER2 YVMA.

A value given as a limit tells only on which side of the number the result lay.

T2 sequence (P00533 with tags, fused parts or gaps DELINS30-297G): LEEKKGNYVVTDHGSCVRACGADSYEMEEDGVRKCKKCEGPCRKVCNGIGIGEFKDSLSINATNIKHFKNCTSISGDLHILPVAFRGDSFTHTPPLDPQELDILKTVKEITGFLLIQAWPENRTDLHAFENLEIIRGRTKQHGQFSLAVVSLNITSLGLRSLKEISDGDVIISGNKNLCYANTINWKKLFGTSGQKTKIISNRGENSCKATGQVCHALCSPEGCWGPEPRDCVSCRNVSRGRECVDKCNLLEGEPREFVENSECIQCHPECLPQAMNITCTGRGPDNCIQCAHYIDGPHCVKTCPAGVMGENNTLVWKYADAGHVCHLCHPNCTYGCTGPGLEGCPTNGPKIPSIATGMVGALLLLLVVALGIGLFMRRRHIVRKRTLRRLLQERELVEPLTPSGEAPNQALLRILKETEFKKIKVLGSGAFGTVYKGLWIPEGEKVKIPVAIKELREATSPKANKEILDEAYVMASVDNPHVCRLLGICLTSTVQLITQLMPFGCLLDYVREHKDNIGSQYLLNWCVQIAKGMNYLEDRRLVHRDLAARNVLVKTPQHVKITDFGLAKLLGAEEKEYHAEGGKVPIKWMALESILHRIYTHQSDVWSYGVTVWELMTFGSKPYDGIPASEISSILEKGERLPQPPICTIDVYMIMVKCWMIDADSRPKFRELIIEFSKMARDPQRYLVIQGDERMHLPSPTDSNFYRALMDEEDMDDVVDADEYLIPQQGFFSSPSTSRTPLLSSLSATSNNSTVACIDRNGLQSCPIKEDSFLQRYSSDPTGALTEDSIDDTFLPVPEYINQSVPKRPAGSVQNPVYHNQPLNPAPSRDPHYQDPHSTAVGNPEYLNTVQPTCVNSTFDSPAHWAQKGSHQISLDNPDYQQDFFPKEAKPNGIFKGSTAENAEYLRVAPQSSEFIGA
T1 sequence (P00533 25-1210): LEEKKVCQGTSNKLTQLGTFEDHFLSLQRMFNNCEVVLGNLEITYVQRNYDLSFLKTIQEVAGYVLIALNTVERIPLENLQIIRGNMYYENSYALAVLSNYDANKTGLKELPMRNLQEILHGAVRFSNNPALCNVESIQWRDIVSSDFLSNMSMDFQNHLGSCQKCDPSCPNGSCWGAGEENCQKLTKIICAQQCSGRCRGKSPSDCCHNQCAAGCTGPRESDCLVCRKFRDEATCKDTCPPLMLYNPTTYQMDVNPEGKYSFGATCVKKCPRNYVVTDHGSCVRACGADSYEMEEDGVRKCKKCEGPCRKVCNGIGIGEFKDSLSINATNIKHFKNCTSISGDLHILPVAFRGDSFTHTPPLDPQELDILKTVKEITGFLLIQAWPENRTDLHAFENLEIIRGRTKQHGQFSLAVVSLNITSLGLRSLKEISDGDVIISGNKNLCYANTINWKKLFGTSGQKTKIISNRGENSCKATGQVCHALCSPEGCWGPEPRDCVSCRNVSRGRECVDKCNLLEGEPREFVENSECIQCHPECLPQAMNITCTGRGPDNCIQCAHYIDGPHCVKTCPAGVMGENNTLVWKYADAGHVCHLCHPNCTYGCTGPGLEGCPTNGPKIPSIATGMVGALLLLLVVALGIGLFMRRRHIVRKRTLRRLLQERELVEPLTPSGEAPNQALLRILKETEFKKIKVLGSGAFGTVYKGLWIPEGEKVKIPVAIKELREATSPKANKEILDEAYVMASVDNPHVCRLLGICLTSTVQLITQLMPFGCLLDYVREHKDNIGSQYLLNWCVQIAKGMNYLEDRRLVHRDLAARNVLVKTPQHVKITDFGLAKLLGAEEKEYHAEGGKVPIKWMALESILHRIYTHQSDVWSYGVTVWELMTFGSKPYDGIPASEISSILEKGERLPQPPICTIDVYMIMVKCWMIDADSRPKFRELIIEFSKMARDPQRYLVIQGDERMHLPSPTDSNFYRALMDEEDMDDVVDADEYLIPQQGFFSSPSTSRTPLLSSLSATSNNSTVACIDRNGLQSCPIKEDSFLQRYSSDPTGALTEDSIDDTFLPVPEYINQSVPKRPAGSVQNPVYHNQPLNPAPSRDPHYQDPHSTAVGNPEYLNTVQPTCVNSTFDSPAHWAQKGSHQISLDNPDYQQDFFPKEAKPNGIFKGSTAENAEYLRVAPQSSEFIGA

Take `CN1C[C@H]2C[C@@]2(C#Cc2cc3ncnc(Nc4cccc(Cl)c4F)c3cc2NC(=O)C(F)Cl)C1` (stereo partly drawn) [Compound 23, 2-chloro-N-(4-((3-chloro-2-fluorophenyl)-amino)-7-(((1R,5S)-3-methyl-3-azabicyclo[3.1.0]hexan-1-yl)ethynyl)quinazolin-6-yl)-2-fluoroacetamide]: the IC50 – broadly, the concentration needed to halve the response being measured – was 0.05 to 0.1 µM against EGFR wt, above 0.5 µM against EGFR V3 and 0.1 to 0.5 µM against HER2 S310F.

In the case of `C=CC(=O)Nc1cc2c(Nc3ccc(OCc4ccccn4)c(Cl)c3)ncnc2cc1C#CC12CCC(CC1)N2C` [Compound 71, N-(4-((3-chloro-4-(pyridin-2-ylmethoxy)phenyl)amino)-7-((7-methyl-7-azabicyclo[2.2.1]heptan-1-yl)ethynyl)quinazolin-6-yl)acrylamide], the IC50 against EGFR wt is above 0.5 µM; on EGFR V3, at most 0.05 µM; on HER2 S310F, at most 0.05 µM; against HER2 YVMA, 0.1 to 0.5 µM.

Turning to `C=CC(=O)Nc1cc2c(Nc3ccc(OCc4ccccn4)c(Cl)c3)ncnc2cc1C#CC1(C)CCCN(C)C1` (centres unmarked) [Compound 67, N-(4-((3-chloro-4-(pyridin-2-ylmethoxy)phenyl)amino)-7-((1,3-dimethylpiperidin-3-yl)ethynyl)quinazolin-6-yl)acrylamide], the IC50 at EGFR wt is above 0.5 µM; on EGFR V3, 0.05 to 0.1 µM; on HER2 S310F, at most 0.05 µM; at HER2 YVMA, 0.1 to 0.5 µM.

For `C=CC(=O)Nc1cc2c(Nc3ccc(OCc4ccccn4)c(Cl)c3)ncnc2cc1C#CC1(C)CCN(C)CC1` [Compound 72, N-(4-((3-chloro-4-(pyridin-2-ylmethoxy)phenyl)amino)-7-((1,4-dimethylpiperidin-4-yl)ethynyl)quinazolin-6-yl)acrylamide], the IC50 was above 0.5 µM against EGFR wt, at most 0.05 µM against EGFR V3, at most 0.05 µM against HER2 S310F and 0.05 to 0.1 µM at HER2 YVMA.

Regarding `C=CC(=O)Nc1cc2c(Nc3cccc(Cl)c3F)ncnc2cc1C#CC1(F)CCN(C)C1` (centres unmarked) [Compound 60, N-(4-((3-chloro-2-fluorophenyl)amino)-7-((3-fluoro-1-methylpyrrolidin-3-yl)ethynyl)quinazolin-6-yl)acrylamide], the IC50 was 0.1 to 0.5 µM against EGFR wt, at most 0.05 µM at EGFR V3, 0.05 to 0.1 µM at HER2 S310F and 0.1 to 0.5 µM at HER2 YVMA.

With `CCC(=O)Nc1cc2c(Nc3cccc(Cl)c3F)ncnc2cc1C#C[C@@]1(C)CCN(C)C1` [Compound 22, (R)—N-(4-((3-chloro-2-fluorophenyl)amino)-7-((1,3-dimethylpyrrolidin-3-yl)ethynyl)quinazolin-6-yl)propionamide], the IC50 against EGFR V3 and against HER2 S310F was above 0.5 µM in each case.

Consider `CN1C[C@H]2C[C@@]2(C#Cc2cc3ncnc(Nc4cccc(Cl)c4F)c3cc2NC(=O)/C=C/CN2C3COCC2C3)C1` [Compound 20, (E)-4-(3-oxa-6-azabicyclo[3.1.1]heptan-6-yl)-N-(4-((3-chloro-2-fluorophenyl)amino)-7-(((1R,5S)-3-methyl-3-azabicyclo[3.1.0]hexan-1-yl)ethynyl)quinazolin-6-yl)but-2-enamide], for which the IC50 at EGFR wt is 0.1 to 0.5 µM; against EGFR V3 it was at most 0.05 µM; against HER2 S310F it was at most 0.05 µM.

With `CN(C)C/C=C/C(=O)Nc1cc2c(Nc3cccc(Cl)c3F)ncnc2cc1C#C[C@@]1(C)CCN(C)C1` [Compound 24, (R,E)-N-(4-((3-chloro-2-fluorophenyl)amino)-7-((1,3-dimethylpyrrolidin-3-yl)ethynyl)quinazolin-6-yl)-4-(dimethylamino)but-2-enamide], the IC50 at EGFR wt was above 0.5 µM; against EGFR V3, 0.05 to 0.1 µM; against HER2 S310F, 0.1 to 0.5 µM.

In the case of `CN1CC[C@](C)(C#Cc2cc3ncnc(Nc4cccc(Cl)c4F)c3cc2NC(=O)/C=C/CN2CCOCC2)C1` [Compound No. 81, (R,E)-N-(4-((3-chloro-2-fluorophenyl)amino)-7-((1,3-dimethylpyrrolidin-3-yl)ethynyl)quinazolin-6-yl)-4-morpholinobut-2-enamide], the IC50 against EGFR V3 is 0.1 to 0.5 µM; against HER2 S310F it was above 0.5 µM; against HER2 YVMA, above 0.5 µM.

For `CN1C[C@H]2C[C@@]2(C#Cc2cc3ncnc(Nc4cccc(Cl)c4F)c3cc2NC(=O)C#CCN2CCOCC2)C1` [Compound 18, N-(4-((3-chloro-2-fluorophenyl)amino)-7-(((1R,5S)-3-methyl-3-azabicyclo[3.1.0]hexan-1-yl)ethynyl)quinazolin-6-yl)-4-morpholinobut-2-ynamide], the IC50 against EGFR V3 and against HER2 S310F was at most 0.05 µM throughout.

For the molecule `C=CC(=O)Nc1cc2c(Nc3cccc(Cl)c3F)ncnc2cc1C#CC1(C)COC1` [Compound 30, N-(4-((3-chloro-2-fluorophenyl)amino)-7-((3-methyloxetan-3-yl)ethynyl)quinazolin-6-yl)acrylamide], the IC50 against EGFR wt is 0.05 to 0.1 µM; against EGFR V3, at most 0.05 µM; against HER2 YVMA, 0.05 to 0.1 µM.

For `C/C=C/C(=O)Nc1cc2c(Nc3cccc(Cl)c3F)ncnc2cc1C#C[C@@]1(C)CCN(C)C1` [Compound 27, (R,E)-N-(4-((3-chloro-2-fluorophenyl)amino)-7-((1,3-dimethylpyrrolidin-3-yl)ethynyl)quinazolin-6-yl)but-2-enamide], the values for the IC50 against EGFR wt, against EGFR V3 and on HER2 YVMA were 0.1 to 0.5 µM, above 0.5 µM and above 0.5 µM, respectively.

Regarding `CN(C)C/C=C/C(=O)Nc1cc2c(Nc3cccc(Cl)c3F)ncnc2cc1C#CC1(C)CCOC1` (centres unmarked) [Compound 44, (E)-N-(4-((3-chloro-2-fluorophenyl)amino)-7-((3-methyltetrahydrofuran-3-yl)ethynyl)quinazolin-6-yl)-4-(dimethylamino)but-2-enamide], the IC50 on EGFR wt, against EGFR V3 and against HER2 YVMA was at most 0.05 µM in each case.

Regarding `C=CC(=O)Nc1cc2c(Nc3ccc(Oc4ccn5ncnc5c4)c(C)c3)ncnc2cc1C#CC12CC1CN(C)C2` (centres unmarked) [Compound 28, N-(4-((4-([1,2,4]triazolo[1,5-a]pyridin-7-yloxy)-3-methylphenyl)amino)-7-((3-methyl-3-azabicyclo[3.1.0]hexan-1-yl)ethynyl)quinazolin-6-yl)acrylamide], the IC50 on EGFR wt was above 0.5 µM; at EGFR V3, at most 0.05 µM; on HER2 YVMA it was at most 0.05 µM.

With `CC#CC(=O)Nc1cc2c(Nc3cccc(Cl)c3F)ncnc2cc1C#C[C@@]12C[C@@H]1CN(C)C2` [Compound 38, N-(4-((3-chloro-2-fluorophenyl)amino)-7-(((1R,5S)-3-methyl-3-azabicyclo[3.1.0]hexan-1-yl)ethynyl)quinazolin-6-yl)but-2-ynamide], the IC50 on EGFR wt is 0.05 to 0.1 µM; against EGFR V3, at most 0.05 µM; against HER2 YVMA, 0.1 to 0.5 µM.

For the molecule `C=CC(=O)Nc1cc2c(Nc3cccc(Cl)c3F)ncnc2cc1C#C[C@]12C[C@H]1CN(C(C)C)C2` [Compound 42, N-(4-((3-chloro-2-fluorophenyl)amino)-7-(((1S,5R)-3-isopropyl-3-azabicyclo[3.1.0]hexan-1-yl)ethynyl)quinazolin-6-yl)acrylamide], the IC50 against EGFR wt, on EGFR V3 and against HER2 YVMA was at most 0.05 µM in each case.

In the case of `CN1CC[C@](C)(C#Cc2cc3ncnc(Nc4cccc(Cl)c4F)c3cc2NC(=O)CC#N)C1` [Compound No. 84, (R)—N-(4-((3-chloro-2-fluorophenyl)amino)-7-((1,3-dimethylpyrrolidin-3-yl)ethynyl)quinazolin-6-yl)-2-cyanoacetamide], the IC50 on EGFR wt, on EGFR V3 and against HER2 YVMA was above 0.5 µM throughout.
